The source of these data is publication PMC8615975, “Design of α/β-Hybrid Peptide Ligands of α4β1 Integrin Equipped with a Linkable Side Chain for Chemoselective Biofunctionalization of Microstructured Materials” (Biomedicines, 2021).

The target in data set [1] is T1, α4β1 integrin (Homo sapiens, UniProt P05556+P13612).
T1 construct: Jurkat E6.1 cells (expressing α4β1) were maintained as a stationary suspension culture; host or cells: Jurkat E6.1
As to the kind of experiment: Inhibition of α4β1 integrin-mediated Jurkat cell adhesion to FN. Conditions: for ability to modulate α4β1 integrin-mediated cell adhesion (in words): Jurkat cell adhesion to FN; for IC50: Jurkat cell adhesion to plates coated with FN (10 μg/mL), mean ± SD, three experiments in quadruplicate. Format: cell-based. As for the experimental part: All cell lines were purchased from the ATCC (Rockville, MD, USA). Jurkat E6.1 cells (expressing α4β1) were maintained as a stationary suspension culture in RPMI-1640 (Life Technologies, Carlsbad, CA, USA) supplemented with 2 mM glutamine and 10% FBS (fetal bovine serum). HEK293 cells were routinely cultured in EMEM (Lonza, Basel, Switzerland) enriched with 10% FBS, L-glutamine and nonessential amino acids. Cells were kept at 37 °C under a 5% CO2 humidified atmosphere.
The adhesion assays were performed as previously described. Briefly, black 96-well plates (Corning Costar, Celbio, Milan, Italy) were coated with FN (10 μg/mL). Cells were counted, stained with CellTracker green CMFDA (12.5 μM, 30 min at 37 °C, Life Technologies), and after three washes with 1% BSA (bovine serum albumin) in HBSS (Life Technologies) were preincubated with increasing concentrations of the new peptide ligands (10^−10–10^−4 M) or with the vehicle (methanol) for 30 min at 37 °C. Afterwards, cells were plated (500,000/well) on coated wells and incubated for 30 min at 37 °C. After three washes, adhered cells were lysed with 0.5% Triton X-100 in PBS (30 min at 4 °C) and fluorescence was measured (Ex485 nm/Em535 nm) in an EnSpire Multimode Plate Reader (PerkinElmer, Waltham, MA, USA).
The number of adherent cells was obtained by comparison with a standard curve prepared in the same plate using diverse concentrations of cells. Experiments were carried out in quadruplicate and repeated at least three times. Data analysis and IC50 values were calculated using GraphPad Prism 6.0 (GraphPad Software, San Diego, CA, USA).

A short description of data set [2]: Enzymatic stability in mouse serum. The data set is classed as in vitro ADME. Conditions: 37 °C, HPLC; for amount of intact peptide: after 3 h. On the procedure:
Incubations were carried out at 37 °C. Aliquots of 20 µL were sampled over 180 min from the mixtures and the samples were diluted with 90 µL of glacial ACN for precipitating proteins. The mixtures were diluted with 90 µL of 0.5% AcOH and centrifuged (13,000× g, 15 min). The supernatants were collected and the amount of intact peptides was determined by RP HPLC. The experiments were performed in triplicate and repeated three times.

Details of data set [3]: method as in PMID 17523052, PMID 11682211. As to conditions: heparinized blood, plasma and rat liver, lung and intestinal homogenates; cited from earlier work.
The next data set concerns isolated α4β1 integrin. More on the design: method as in PMID 30051467. As to conditions: read-out: IC50, affinity for the isolated α4β1 integrin; cited from earlier work.
The test system of data set [4] is α4β1 integrin. The arrangement: method as in PMID 30051467. Conditions: VCAM-1; read-out: IC50, adhesion of α4β1 integrin-expressing cells to VCAM-1; cited from earlier work.
Details of data set [5]: method as in PMID 30051467. Conditions: incubation in mouse serum; cited from earlier work.

*1 amine or outer side, *2 acyl side, *3 side chain or, on linkers, in order; H or OH if unused. Where a SMILES comes first, the peptide text is derived from it. [ ]: non-standard residue; d: D form. The star is where a group is joined. X1 = O=C(Cc1ccc(N[*:1])cc1)[*:2]; NH(2-Me-phenyl) = Cc1ccccc1N*; CO = O=C([*:1])[*:2]

As a reminder, the IC50 is the concentration needed to halve the response being measured.

T1 sequence (P13612 34-1032): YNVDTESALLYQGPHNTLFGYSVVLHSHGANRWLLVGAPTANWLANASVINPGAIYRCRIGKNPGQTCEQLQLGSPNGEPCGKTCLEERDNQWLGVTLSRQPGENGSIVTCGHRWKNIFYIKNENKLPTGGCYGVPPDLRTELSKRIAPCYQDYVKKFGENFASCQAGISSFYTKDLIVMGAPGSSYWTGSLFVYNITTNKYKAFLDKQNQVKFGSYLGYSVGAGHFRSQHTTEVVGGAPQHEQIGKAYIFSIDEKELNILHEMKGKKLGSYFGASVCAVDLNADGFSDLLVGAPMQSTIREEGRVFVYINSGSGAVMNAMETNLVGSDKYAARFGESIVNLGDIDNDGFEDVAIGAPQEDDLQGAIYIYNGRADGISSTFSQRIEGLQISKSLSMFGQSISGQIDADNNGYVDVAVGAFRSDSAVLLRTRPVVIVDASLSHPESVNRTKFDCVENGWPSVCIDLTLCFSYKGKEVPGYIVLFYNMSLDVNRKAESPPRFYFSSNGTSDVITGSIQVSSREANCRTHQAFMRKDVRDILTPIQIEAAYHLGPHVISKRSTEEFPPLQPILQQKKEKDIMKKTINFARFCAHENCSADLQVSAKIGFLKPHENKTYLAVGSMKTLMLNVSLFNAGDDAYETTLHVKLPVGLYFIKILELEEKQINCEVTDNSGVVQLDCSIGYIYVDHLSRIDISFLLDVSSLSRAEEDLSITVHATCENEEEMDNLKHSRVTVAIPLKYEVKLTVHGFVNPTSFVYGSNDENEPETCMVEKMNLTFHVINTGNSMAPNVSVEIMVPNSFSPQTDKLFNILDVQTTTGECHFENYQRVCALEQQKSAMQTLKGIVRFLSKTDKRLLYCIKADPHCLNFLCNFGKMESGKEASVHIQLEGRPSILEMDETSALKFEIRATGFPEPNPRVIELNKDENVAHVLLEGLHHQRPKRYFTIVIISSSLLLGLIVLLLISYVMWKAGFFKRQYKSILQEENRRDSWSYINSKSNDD
T1 sequence (P05556 21-798): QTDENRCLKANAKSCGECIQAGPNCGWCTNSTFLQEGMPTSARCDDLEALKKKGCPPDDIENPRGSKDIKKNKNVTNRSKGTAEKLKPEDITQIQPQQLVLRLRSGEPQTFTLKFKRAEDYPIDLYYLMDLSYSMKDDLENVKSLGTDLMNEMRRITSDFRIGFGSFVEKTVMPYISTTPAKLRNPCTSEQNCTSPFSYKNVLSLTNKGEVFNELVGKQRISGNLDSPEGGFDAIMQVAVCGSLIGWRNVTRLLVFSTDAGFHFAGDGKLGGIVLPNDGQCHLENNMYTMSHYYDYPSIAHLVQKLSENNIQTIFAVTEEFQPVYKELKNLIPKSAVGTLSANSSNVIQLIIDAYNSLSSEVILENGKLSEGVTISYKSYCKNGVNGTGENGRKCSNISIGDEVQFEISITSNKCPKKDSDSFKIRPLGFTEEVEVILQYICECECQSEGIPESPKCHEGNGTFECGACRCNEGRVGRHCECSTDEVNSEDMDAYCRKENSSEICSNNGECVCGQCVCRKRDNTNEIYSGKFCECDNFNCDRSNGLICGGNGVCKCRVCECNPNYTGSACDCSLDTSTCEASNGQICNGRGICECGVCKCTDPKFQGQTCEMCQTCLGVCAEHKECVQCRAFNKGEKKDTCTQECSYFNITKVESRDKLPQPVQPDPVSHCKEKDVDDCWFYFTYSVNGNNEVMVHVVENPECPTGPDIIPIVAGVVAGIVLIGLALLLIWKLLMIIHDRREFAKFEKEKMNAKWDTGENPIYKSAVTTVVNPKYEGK

For the compound `CC(=O)N[C@H](CNC(=O)Cc1ccc(NC(=O)Nc2ccccc2C)cc1)C(=O)NCC(=O)O` [Compound 14, MPUPA-Dap(Ac)-Gly-OH], at α4β1 integrin [1], the “ability to modulate α4β1 integrin-mediated cell adhesion (in words)” value was “inactive” and the IC50 was more than 5 µM.
Turning to `CC(=O)N[C@@H](CNC(=O)Cc1ccc(NC(=O)Nc2ccccc2C)cc1)C(=O)NCC(=O)O` [Compound 13, MPUPA-(S)-Dap(Ac)-Gly-OH], at α4β1 integrin [1], the “ability to modulate α4β1 integrin-mediated cell adhesion (in words)” value is listed as “submicromolar range” and the IC50 stood at 0.236 ± 0.047 µM. Further, the “amount of intact peptide” value in data set [2] is recorded as approximately 91%.
On to `Cc1ccccc1NC(=O)Nc1ccc(CC(=O)N[C@@H](CC(C)C)C(=O)N[C@@H](CC(=O)O)C(=O)N[C@H](C(=O)N2CCC[C@H]2C(=O)O)C(C)C)cc1` [BIO1211, MPUPA-Leu-Asp-Val-Pro-OH, reference compound] ({NH(2-Me-phenyl)-CO}-[X1]LDVP-OH), for which the “initial amount still present” value in data set [2] (after 1 h) is recorded as “about 10%”. Also, the “stability in physiological conditions (in words)” value in data set [3] is recorded as “poor stability”.
As for `Cc1ccccc1NC(=O)Nc1ccc(CC(=O)NC[C@H](C)C(=O)NCC(=O)O)cc1` [Compound 9, MPUPA-β^2-homoAla-Gly-OH], on α4β1 integrin [1], the “ability to modulate α4β1 integrin-mediated cell adhesion (in words)” value is reported as “not able to modulate α4β1 integrin-mediated cell adhesion to a significant extent” and the IC50 was more than 5 µM.
Take `Cc1ccccc1NC(=O)Nc1ccc(CC(=O)N2CC[C@H](C(=O)NCC(=O)O)C2)cc1` [Compound 6]: the IC50 in the data set on isolated α4β1 integrin is 0.0083 µM; in the data set on α4β1 integrin [4], 0.00504 µM. The “enzymatic stability (in words)” value in data set [5] is listed as “good enzymatic stability”.
In the case of `Cc1ccccc1NC(=O)Nc1ccc(CC(=O)NC[C@@H](C)C(=O)NCC(=O)O)cc1` [Compound 10, MPUPA-β^2-homoAla-Gly-OH], at α4β1 integrin [1], the “ability to modulate α4β1 integrin-mediated cell adhesion (in words)” value is “not able to modulate α4β1 integrin-mediated cell adhesion to a significant extent” and the IC50 is more than 5 µM.
Turning to `CCCNC(=O)[C@@H](CC(=O)NCC(=O)O)NC(=O)Cc1ccc(NC(=O)Nc2ccccc2C)cc1` [Compound 12, MPUPA-(R)-isoAsp(NHPr)-Gly-OH], on α4β1 integrin [1], the IC50 came out at 0.0098 ± 0.0021 µM. In data set [2], the “amount of intact peptide” value is listed as “around 80%”.
As to `Cc1ccccc1NC(=O)Nc1ccc(CC(=O)N[C@@H](C)CC(=O)NCC(=O)O)cc1` [Compound 7, MPUPA-β^3-homoAla-Gly-OH], the concentration for half-maximal inhibition (IC50) against α4β1 integrin [1] was 4.06 ± 0.78 µM.
Same read-out and setting: under `CCCNC(=O)[C@H](CC(=O)NCC(=O)O)NC(=O)Cc1ccc(NC(=O)Nc2ccccc2C)cc1` [Compound 11, MPUPA-isoAsp(NHPr)-Gly-OH] stands more than 5 µM.
On the same count and under the same terms, under `Cc1ccccc1NC(=O)Nc1ccc(CC(=O)N[C@H](C)CC(=O)NCC(=O)O)cc1` [Compound 8, MPUPA-β^3-homoAla-Gly-OH] stands more than 5 µM.
